Assay results taken from PubChem BioAssay (NCI).
≈ marks a conversion by molar mass, not a printed value. Where “and” joins values, the source holds several entries; their conditions need not be identical. Equal entries are not always repeated.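 48-hour exposure; five concentrations; linearly interpolated endpoints. Abbreviation: GI50, concentration required for 50% inhibition of growth. TGI denotes the concentration required for complete inhibition of growth.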

How the values were obtained:
Experiment in all cases: growth of human tumour cells (NCI), 48 h
A549 NSCLC = system: A549 NSCLC
HCT-15 colon = system: HCT-15 colon
K-562 leukemia = system: K-562 leukemia
NCI-H23 lung = system: NCI-H23 lung
NCI/ADR-RES ovarian = system: NCI/ADR-RES ovarian
SF-268 CNS = system: SF-268 CNS
SK-OV-3 ovarian = system: SK-OV-3 ovarian
T-47D breast = system: T-47D breast
KM12 colon = system: KM12 colon
COLO 205 colon = system: COLO 205 colon

Row | SMILES | TGI (A549 NSCLC) | TGI (HCT-15 colon) | TGI (K-562 leukemia) | TGI (NCI-H23 lung) | TGI (NCI/ADR-RES ovarian) [µM] | TGI (SF-268 CNS) [µM] | TGI (SK-OV-3 ovarian) | TGI (T-47D breast) [µM] | TGI (KM12 colon) | TGI (COLO 205 colon) | GI50 (COLO 205 colon) [mg/L] | GI50 (HCT-15 colon) [mg/L] | GI50 (K-562 leukemia) [mg/L] | GI50 (KM12 colon) [mg/L] | GI50 (NCI-H23 lung) [µM] | GI50 (SK-OV-3 ovarian) [mg/L]
1 | Cc1ccc2c(c1)CC1(Cc3cc(C)ccc3C1=O)C2=O | > 100 µM | > 100 µM | > 100 µM | > 100 µM | > 100 | > 100 | > 100 µM | > 100 | – | – | – | – | – | – | – | –
2 | CCn1c(=O)c2nc(SC)sc2n(-c2ccccc2)c1=S | > 100 µM | > 100 µM | 55.1 µM | > 100 µM | > 100 | > 100 | > 100 µM | > 100 | > 100 µM | – | – | – | – | – | – | –
3 | COc1cc2c(cc1C)NC(=O)/C2=C/c1c(Cl)[nH]c2ccccc12 | > 100 µM | 14.6 µM | > 100 µM | 23.7 µM | – | 17.7 | 7.71 µM | 34.1 | 16.9 µM | 13.1 µM | – | – | – | – | – | –
4 | CC(NC(CC12CC3CC(CC(C3)C1)C2)C(N)=O)c1ccccc1 (configuration not stated) | > 100 µM | > 100 µM | 41.4 µM | – | 48 | 61.2 | > 100 µM | > 100 | – | 28.7 µM | – | – | – | – | – | –
5 | COC(=O)c1sc2c(c1C(=O)OC)C(=Nc1ccc(OC)cc1)SC2=Nc1ccc(OC)cc1 | 2.68 µM | 1.66 µM | – | 3.12 µM | 3.47 | 3.61 | 3.37 µM | – | 3.03 µM | 1.31 µM | – | – | – | – | – | –
6 | C=CCCCCCCCCCOC1C=CC(O)C(CO)O1 (configuration not stated) | > 100 µM | > 100 µM | 53.3 µM | 97.5 µM | > 100 | > 100 | > 100 µM | > 100 | 85.1 µM | > 100 µM | – | – | – | – | – | –
7 | Cc1n[nH]c(=O)c2c3c([nH]c12)-c1ccccc1C3 | > 100 µM | > 100 µM | > 100 µM | > 100 µM | > 100 | > 100 | > 100 µM | > 100 | > 100 µM | > 100 µM | – | – | – | – | – | –
8 | CCc1nnc2sc(-c3ccc(-c4ccccc4[N+](=O)[O-])o3)nn12 | > 100 µM | > 100 µM | > 100 µM | > 100 µM | 75.1 | > 100 | > 100 µM | > 100 | > 100 µM | > 100 µM | – | – | – | – | – | –
9 | COc1ccc(Cl)cc1NC(=O)O/N=C(\Cl)C(C)C | 37.9 µM | – | 7.59 µM | 47.7 µM | 16.6 | 47.4 | 34.7 µM | 16.8 | 35.5 µM | 3.5 µM | – | – | – | – | – | –
10 | N#CC1=C(N)OC2=C(CCCc3ccc([N+](=O)[O-])cc32)C1c1ccc(Cl)cc1 (configuration not stated) | > 100 µM | > 100 µM | > 100 µM | 47.7 µM | 78.1 | > 100 | > 100 µM | 53.9 | > 100 µM | > 100 µM | – | – | – | – | – | –
11 | N#CCCN(C(=O)Nc1ccc(NC(=O)N(CCC#N)c2ccccc2)cc1)c1ccccc1 | > 100 µM | > 100 µM | > 100 µM | > 100 µM | > 100 | > 100 | > 100 µM | > 100 | > 100 µM | > 100 µM | – | – | – | – | – | –
12 | CC(=O)OC1CCC2(C)C(CCC3C2CCC2(C)C(c4ccc(=O)oc4)C(OC(C)=O)CC32O)C1 (configuration not stated) | 0.0157 µM | 0.0313 µM | 0.141 µM | 0.0296 µM | 0.0555 | 0.0341 | 0.103 µM | – | 0.161 µM | 0.162 µM | – | – | – | – | – | –
13 | C=CCN(C(C)=O)c1cc(OCc2ccccc2)c2c(c1)c(C)cn2S(=O)(=O)c1ccccc1 | > 100 µM | > 100 µM | > 54.8 µM | > 100 µM | > 100 | > 100 | > 100 µM | > 35 | > 100 µM | 12.6 µM | – | – | – | – | – | –
14 | Cc1ccc([N+](=O)[O-])cc1S(=O)(=O)Nc1ccc(C2=NN(S(=O)(=O)c3cc([N+](=O)[O-])ccc3C)C(c3ccccc3O)C2)cc1 (configuration not stated) | > 100 µM | > 100 µM | > 100 µM | > 100 µM | > 100 | > 100 | > 100 µM | > 100 | > 100 µM | > 100 µM | – | – | – | – | – | –
15 | O=c1[nH]nc(-c2cccc([N+](=O)[O-])c2)[nH]1 | > 100 µM | > 100 µM | > 100 µM | > 100 µM | > 100 | > 100 | – | > 100 | > 100 µM | > 100 µM | – | – | – | – | – | –
16 | CC(C)C1OC(=O)C(Cc2ccccc2)N(C)C(=O)C(C(C)C)OC(=O)C(Cc2ccccc2)N(C)C(=O)C(C(C)C)OC(=O)C(Cc2ccccc2)N(C)C1=O (configuration not stated) | 1.87 µM | 2.61 µM | 3.52 µM | 2.62 µM | 2.36 | 3.2 | 2.16 µM | 3.25 | 1.33 µM | 1.95 µM | – | – | – | – | – | –
17 | CCC(C)C(NC(=O)c1cccc2c(=O)c3ccccc3[nH]c12)C(=O)O (configuration not stated) | > 100 µM | > 100 µM | > 100 µM | > 100 µM | > 100 | > 100 | > 100 µM | – | > 100 µM | > 100 µM | – | – | – | – | – | –
18 | CC/C(CC(=O)CCC(=O)Nc1ccc(C)c(C)c1)=N\NC(=O)c1cc2ccccc2cc1O | – | > 100 µM | > 100 µM | 89.4 µM | – | > 100 | 87.3 µM | – | > 100 µM | > 100 µM | – | – | – | – | – | –
19 | CC(C)C(Sc1nc(N)nc2nc[nH]c12)C(=O)O (configuration not stated) | > 100 µM | > 100 µM | > 100 µM | > 100 µM | > 100 | > 100 | > 100 µM | > 100 | > 100 µM | > 100 µM | – | – | – | – | – | –
20 | Cc1c2ccncc2c(C)c2c1[nH]c1ccc(O)cc12 | 0.397 mg/L | 0.361 mg/L | 0.675 mg/L | 84.1 mM and 0.0172 µg/mL | – | – | 0.261 mg/L | – | 0.271 mg/L | 0.455 mg/L | 0.0699 (≈ 0.267 µM) | 0.0107 (≈ 0.0409 µM) | 0.0182 (≈ 0.0695 µM) | 0.0458 (≈ 0.174 µM) | 11800 | 0.0393 (≈ 0.15 µM)
21 | CC(=O)CC(O)(C(F)(F)Cl)C(F)(Cl)Cl (configuration not stated) | > 10 µM | > 10 µM | > 10 µM | > 10 µM | > 10 | > 10 | > 10 µM | > 10 | > 10 µM | > 10 µM | – | – | – | – | – | –
22 | CC1(C)OCC(/C=C\C(O)CC2(C)OCCO2)CO1 (configuration not stated) | > 100 µM | > 100 µM | > 100 µM | – | > 100 | > 100 | > 100 µM | > 100 | > 100 µM | > 100 µM | – | – | – | – | – | –
